From ChEMBL document CHEMBL3612011, “Synthesis of new opioid derivatives with a propellane skeleton and their pharmacologies: Part 5, novel pentacyclic propellane derivatives with a 6-amide side chain” (Bioorg Med Chem, 2015)
The source made the active and inactive calls. The rule behind the calls is not given here.

What was measured:
Mus musculus [1] = species: Mus musculus; assay: Selectivity index, ratio of Ki for DOR in mouse whole brain membranes without cerebellum to Ki for KOR in mouse whole brain membranes without cerebellum; type: cell membranes
[2] = Selectivity index, ratio of Ki for MOR in guinea pig cerebellum membranes to Ki for KOR in mouse whole brain membranes without cerebellum; type: cell membranes
[3] = molecular target: Kappa-type opioid receptor (Mus musculus, UniProt P33534); assay: Displacement of [3H]U69,593 from KOR in mouse whole brain membranes without cerebellum; type: cell membranes, Membrane
[4] = molecular target: Delta-type opioid receptor (Mus musculus, UniProt P32300); assay: Displacement of [3H]DPDPE from DOR in mouse whole brain membranes without cerebellum; type: cell membranes, Membrane
Mu-type opioid receptor = Mu-type opioid receptor (Cavia porcellus, UniProt P97266); assay: Displacement of [3H]DAMGO from MOR in guinea pig cerebellum membranes; type: cell membranes, Membrane
Mus musculus [5] = species: Mus musculus; assay: Induction of sedation in ICR mouse by spontaneous locomotor activity test; type: organism-based; settings: in vivo
Mus musculus [6] = assay: Antinociceptive activity in ICR mouse assessed as reduction in acetic acid-induced abdominal writhing dosed subcutaneously 15 mins before acetic acid challenge; type: functional; settings: Abdomen; for ED50: sc
[7] = Therapeutic index, ratio of ED50 for induction of sedation in ICR mouse by spontaneous locomotor activity test to ED50 for antinociceptive activity in ICR mouse by acetic acid abdominal constriction test; type: organism-based, Abdomen; settings: in vivo, read-out: Ratio ED50
[8] = molecular target: T1, Kappa-type opioid receptor (Homo sapiens, UniProt P41145); assay: Agonist activity at human KOR expressed in CHO cell membranes by [35S]GTPgammaS binding assay; type: functional
Mus musculus [9] = assay: Antinociceptive activity in ICR mouse assessed as reduction in acetic acid-induced abdominal writhing dosed subcutaneously 15 mins before acetic acid challenge and treated 24 hrs after 10 mg/kg, sc KOR antagonist nor-Binaltorphimin dosing; type: functional, organism-based; settings: Abdomen
[10] = molecular target: T1, Kappa-type opioid receptor; assay: Agonist activity at human KOR expressed in CHO cell membranes by [35S]GTPgammaS binding assay relative to U69,593; type: functional

Mu-type opioid receptor, sequence (P97266 whole entry): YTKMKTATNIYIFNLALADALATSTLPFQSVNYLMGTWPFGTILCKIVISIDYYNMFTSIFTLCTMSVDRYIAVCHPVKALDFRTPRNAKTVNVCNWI
Delta-type opioid receptor, sequence (P32300 whole entry): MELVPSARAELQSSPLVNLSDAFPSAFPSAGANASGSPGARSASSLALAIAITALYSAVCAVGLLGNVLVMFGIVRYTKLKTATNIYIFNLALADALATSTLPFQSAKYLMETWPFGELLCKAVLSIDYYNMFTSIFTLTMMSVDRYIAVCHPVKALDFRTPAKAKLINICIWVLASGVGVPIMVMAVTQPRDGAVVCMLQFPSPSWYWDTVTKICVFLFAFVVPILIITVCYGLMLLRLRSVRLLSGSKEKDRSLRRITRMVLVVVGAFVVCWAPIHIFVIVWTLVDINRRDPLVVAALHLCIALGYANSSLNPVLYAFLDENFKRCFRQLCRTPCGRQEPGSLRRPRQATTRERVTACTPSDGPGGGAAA
Kappa-type opioid receptor (Mus musculus, UniProt P33534), sequence (P33534 whole entry): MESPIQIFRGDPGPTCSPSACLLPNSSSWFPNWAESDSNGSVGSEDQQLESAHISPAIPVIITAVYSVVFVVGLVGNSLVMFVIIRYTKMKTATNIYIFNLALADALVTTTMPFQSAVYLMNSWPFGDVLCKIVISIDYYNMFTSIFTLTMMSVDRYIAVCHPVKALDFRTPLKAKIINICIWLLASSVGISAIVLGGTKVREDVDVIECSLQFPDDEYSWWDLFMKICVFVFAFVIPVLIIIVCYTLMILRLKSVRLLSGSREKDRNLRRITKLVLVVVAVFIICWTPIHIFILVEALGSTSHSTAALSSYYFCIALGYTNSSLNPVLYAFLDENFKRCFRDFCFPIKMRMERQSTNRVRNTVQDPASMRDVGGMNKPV
T1 sequence (P41145 whole entry): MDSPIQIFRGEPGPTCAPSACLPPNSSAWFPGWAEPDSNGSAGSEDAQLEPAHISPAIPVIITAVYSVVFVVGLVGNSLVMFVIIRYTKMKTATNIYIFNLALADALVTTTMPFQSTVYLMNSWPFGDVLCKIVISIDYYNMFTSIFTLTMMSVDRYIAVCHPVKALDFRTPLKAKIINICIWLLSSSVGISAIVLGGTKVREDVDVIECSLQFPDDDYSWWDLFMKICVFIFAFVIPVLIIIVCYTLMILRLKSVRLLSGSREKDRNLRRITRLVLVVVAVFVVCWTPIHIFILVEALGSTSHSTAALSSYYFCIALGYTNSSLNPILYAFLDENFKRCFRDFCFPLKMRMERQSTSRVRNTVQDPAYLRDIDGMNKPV

SMILES	Ratio Ki (Mus musculus [1])	Ratio Ki [2]	Ki [3] [nM]	Ki [4] [nM]	Ki (Mu-type opioid receptor) [nM]	ED50 (Mus musculus [5]) [mg/kg]	ED50 (Mus musculus [6]) [mg/kg]	selectivity ratio [7]	inhibition (Mus musculus [6])	EC50 [8] [nM]	inhibition (Mus musculus [9])	Emax [10] [%]
CN(C(=O)Cc1ccccc1)[C@@H]1C[C@@]23CCN(CC4CC4)[C@H]4C=C[C@@H]1C[C@]42Cc1ccc(O)cc13	6.92	1.75	0.24	1.66	0.42	–	–	–	–	–	–	–
CN(C(=O)CCc1ccccc1)[C@H]1C[C@@]23CCN(CC4CC4)[C@H]4CCC1C[C@]42Cc1ccc(O)cc13 (single isomer, unassigned)	2.72	0.966	11.9	32.4	11.5	–	–	–	–	–	–	–
CN(C(=O)c1ccccc1)[C@H]1C[C@@]23CCN(CC4CC4)[C@H]4C=C[C@@H]1C[C@]42Cc1ccc(O)cc13	0.493	3.63	13.1	6.46	47.6	–	–	–	–	–	–	–
CN(C(=O)Cc1ccccc1)[C@H]1C[C@@]23CCN(CC4CC4)[C@H]4C=C[C@@H]1C[C@]42Cc1ccc(O)cc13	2.6	7.05	1.73	4.5	12.2	–	–	–	–	–	–	–
CN(C(=O)/C=C/c1ccoc1)[C@@H]1CC[C@@]2(O)[C@H]3Cc4ccc(O)c5c4[C@@]2(CCN3CC2CC2)[C@H]1O5.Cl [NALFURAFINE HYDROCHLORIDE]	–	–	–	–	–	0.0344	0.00622	–	–	–	–	–
CN(C(=O)CCc1ccccc1)[C@H]1C[C@@]23CCN(CC4CC4)[C@H]4C=C[C@@H]1C[C@]42Cc1ccc(O)cc13	5.75	2.34	1.86	10.7	4.36	–	–	–	–	–	–	–
CN(C(=O)CCc1ccccc1)[C@@H]1C[C@@]23CCN(CC4CC4)[C@H]4C=C[C@@H]1C[C@]42Cc1ccc(O)cc13	7.49	1.09	0.47	3.52	0.51	–	–	–	–	–	–	–
CN(C(=O)Cc1ccccc1)[C@H]1C[C@@]23CCN(CC4CC4)[C@H]4CCC1C[C@]42Cc1ccc(O)cc13 (single isomer, unassigned)	1.36	5.42	11	15	59.6	–	–	–	–	–	–	–
CN(C(=O)c1ccccc1)[C@@H]1C[C@@]23CCN(CC4CC4)[C@H]4CCC1C[C@]42Cc1ccc(O)cc13 (single isomer, unassigned)	6.72	0.516	0.543	3.65	0.28	–	–	–	–	–	–	–
CN(C(=O)/C=C/c1ccoc1)[C@H]1C[C@@]23CCN(CC4CC4)[C@H]4CC[C@@H]1C[C@]42Cc1ccc(O)cc13	2.28	5.73	8.36	19.1	47.9	–	–	–	–	–	–	–
CN(C(=O)/C=C/c1ccoc1)[C@@H]1C[C@@]23CCN(CC4CC4)[C@H]4CC[C@@H]1C[C@]42Cc1ccc(O)cc13	0.89	1.14	0.204	0.182	0.232	–	–	–	–	–	–	–
CN(C(=O)/C=C/c1ccoc1)[C@@H]1C[C@@]23CCN(CC4CC4)[C@H]4C=C[C@@H]1C[C@]42Cc1ccc(O)cc13	17.3	2.48	0.23	3.98	0.57	–	–	–	–	–	–	–
CN(C(=O)c1ccccc1)[C@H]1C[C@@]23CCN(CC4CC4)[C@H]4CCC1C[C@]42Cc1ccc(O)cc13 (single isomer, unassigned)	0.092	4.06	13.8	1.27	56	–	–	–	–	–	–	–
CN(C(=O)c1ccccc1)[C@@H]1C[C@@]23CCN(CC4CC4)[C@H]4C=C[C@@H]1C[C@]42Cc1ccc(O)cc13	0.5	0.61	4.46	2.23	2.7	–	–	–	–	–	–	–
CN(C(=O)/C=C/c1ccoc1)[C@H]1C[C@@]23CCN(CC4CC4)[C@H]4C=C[C@@H]1C[C@]42Cc1ccc(O)cc13.Cl	17.3	17	0.82	14.2	13.9	7.74	0.589	13.1	Dose-dependent effect	11.8	inactive	108
CN(C(=O)CCc1ccccc1)[C@@H]1C[C@@]23CCN(CC4CC4)[C@H]4CCC1C[C@]42Cc1ccc(O)cc13 (single isomer, unassigned)	10.2	2.03	0.113	1.15	0.229	–	–	–	–	–	–	–
CN(C(=O)Cc1ccccc1)[C@@H]1C[C@@]23CCN(CC4CC4)[C@H]4CCC1C[C@]42Cc1ccc(O)cc13 (single isomer, unassigned)	8.75	1.45	0.136	1.19	0.197	–	–	–	–	–	–	–
